{"source": "patent US20170114029A1", "about": "“TREATMENT OF CHAGAS DISEASE” (UNIVERSITY OF DUNDEE, priority 2014, published 2017)", "tested_on": "T. cruzi Tulahuen strain C2C4", "test": "Activity against T. cruzi (beta-galactosidase expressing parasites in L-6 cells)", "type": "cell-based, Trypanosoma cruzi", "conditions": "for IC50: Trypanosoma cruzi, TULAHUEN, L6, in Rattus norvegicus, 96 h, read-out: Activity (IC50)", "experimental": "Activity against T. cruzi. Rat skeletal myoblasts (L-6 cells) were seeded in 96-well microtitre plates at 2000 cells/well in 100 μL RPMI 1640 medium with 10% FBS and 2 mM 1-glutamine. After 24 h the medium was removed and replaced by 100 μl per well containing 5000 trypomastigote forms of T. cruzi Tulahuen strain C2C4 containing the […] (Lac Z) gene (Buckner et al. 1996). After 48 h the medium was removed from the wells and replaced by 100 μl fresh medium with or without a serial drug dilution of eleven 3-fold dilution steps covering a range from 100 to 0.002 μg/ml. After 96 h of incubation the plates were inspected under an inverted microscope to assure growth of the controls and sterility. Then the substrate CPRG/Nonidet (50 μl) was added to all wells. A color reaction developed within 2-6 h and could be read photometrically at 540 nm. Data were analyzed with the graphic programme Softmax Pro (Molecular Devices), which calculated IC50 values by linear regression (Huber 1993) from the sigmoidal dose inhibition curves. Benznidazole is used as control (IC50 0.5±0.2 ug/ml). • Buckner, F. S., C. L. Verlinde, A. C. La Flamme, and W. C. Van Voorhis. 1996. Efficient technique for screening drugs for activity against Trypanosoma cruzi using parasites expressing beta-galactosidase, p. 2592-2597, vol. 40. • Huber, W. Koella, J. C. 1993. A comparison of the three methods of estimating EC50 in studies of drug resistance of malaria parasites. Acta Trop. 55, 257-261.", "key": {"[1]": {"conditions": "trypomastigotes in rat skeletal myoblasts (L-6 cells), 96 h incubation, CPRG/Nonidet read at 540 nm"}}, "note": "Like-named read-outs stand apart in the source and are kept apart here."}
{"compound": "CCC1CCC(n2c(=O)[nH]c3ncc(NC(C)=O)cc3c2=O)CC1", "note": "(stereo not drawn) [Example 35, N-[3-(trans-4-ethyl-cyclohexyl)-2,4-dioxo-1,2,3,4-tetrahydro-pyrido[2,3-d]pyhmidin-6-yl]-acetamide]", "values": [{"measurement": "IC50", "setting": "[1]", "result": 0.1, "unit": "mg/L"}]}
{"compound": "CCC1CCC(n2c(=O)[nH]c3ncc(NC(C)=O)cc3c2=O)CC1", "note": "(stereo not drawn) [Example 36, N-(3-((1s,4s)-4-ethylcyclohexyl)-2,4-dioxo-1,2,3,4-tetrahydropyrido[2,3-d]pyrimidin-6-yl)acetamide]", "values": [{"measurement": "Activity (IC50)", "setting": "[1]", "result": 0.110, "unit": "mg/L"}]}
{"compound": "CC(=O)Nc1cnc2[nH]c(=O)n(CCC3CCCCC3)c(=O)c2c1", "note": "[Example 39, N-(3-(2-cyclohexylethyl)-2,4-dioxo-1,2,3,4-tetrahydropyrido[2,3-d]pyrimidin-6-yl)acetamide]", "values": [{"measurement": "IC50", "setting": "[1]", "result": 0.755, "unit": "mg/L"}]}
{"compound": "CC(=O)Nc1ccc2[nH]c(=O)n(CCCN3CCOCC3)c(=O)c2c1", "note": "[Example 40, N-(3-(3-Morpholinopropyl)-2,4-dioxo-1,2,3,4-tetrahydroquinazolin-6-yl)acetamide]", "values": [{"measurement": "IC50", "setting": "[1]", "result": 55.3, "unit": "mg/L"}]}
{"compound": "CCCCCCn1c(=O)[nH]c2ccc(NC(C)=O)cc2c1=O", "note": "[Example 41, N-(3-hexyl-2,4-dioxo-1,2,3,4-tetrahydroquinazolin-6-yl)acetamide]", "values": [{"measurement": "IC50", "setting": "[1]", "result": 0.881, "unit": "mg/L"}]}
{"compound": "CC(=O)Nc1ccc2[nH]c(=O)n(CCC3CCCC3)c(=O)c2c1", "note": "[Example 42, N-(3-(2-cyclopentylethyl)-2,4-dioxo-1,2,3,4-tetrahydroquinazolin-6-yl)acetamide]", "values": [{"measurement": "IC50", "setting": "[1]", "result": 0.713, "unit": "mg/L"}]}
{"compound": "CC(=O)Nc1ccc2[nH]c(=O)n(Cc3cccc(C(F)(F)F)c3)c(=O)c2c1", "note": "[Example 43, N-(2,4-dioxo-3-(3-(trifluoromethyl)benzyl)-1,2,3,4-tetrahydroquinazolin-6-yl)acetamide]", "values": [{"measurement": "IC50", "result": 0.804, "unit": "mg/L"}]}
{"compound": "CC(=O)Nc1ccc2[nH]c(=O)n(CCCc3ccc(F)cc3)c(=O)c2c1", "note": "[Example 44, N-(3-(3-(4-fluorophenyl)propyl)-2,4-dioxo-1,2,3,4-tetrahydroquinazolin-6-yl)acetamide]", "values": [{"measurement": "IC50", "setting": "[1]", "result": 0.943, "unit": "mg/L"}]}
{"compound": "CC(=O)Nc1ccc2[nH]c(=O)n(C3CCCCCC3)c(=O)c2c1", "note": "[Example 46, N-(3-Cycloheptyl-2,4-dioxo-1,2,3,4-tetrahydro-quinazolin-6-yl)acetamide]", "values": [{"measurement": "IC50", "setting": "[1]", "result": 0.661, "unit": "mg/L"}]}
{"compound": "CC(=O)Nc1ccc2[nH]c(=O)n([C@H]3CC[C@@H](C(C)C)CC3)c(=O)c2c1", "note": "[Example 47, N-(3-((1s,4s)-4-Isopropylcyclohexyl)-2,4-dioxo-1,2,3,4-tetrahydroquinazolin-6-yl)acetamide]", "values": [{"measurement": "IC50", "setting": "[1]", "result": 0.087, "unit": "mg/L"}]}
{"compound": "CC(=O)Nc1ccc2[nH]c(=O)n([C@H]3CC[C@H](C(C)C)CC3)c(=O)c2c1", "note": "[Example 48, N-(3-((1r,4r)-4-Isopropylcyclohexyl)-2,4-dioxo-1,2,3,4-tetrahydroquinazolin-6-yl)acelamide]", "values": [{"measurement": "IC50", "setting": "[1]", "result": 0.018, "unit": "mg/L"}]}
{"compound": "CC(=O)Nc1ccc2[nH]c(=O)n([C@H]3CC[C@H](C(C)(C)C)CC3)c(=O)c2c1", "note": "[Example 49, N-(3-((1r,4r)-4-(tert-butyl)cyclohexyl)-2,4-dioxo-1,2,3,4-tetrahydroquinazolin-6-yl)acetamide]", "values": [{"measurement": "IC50", "setting": "[1]", "result": 0.008, "unit": "mg/L"}]}
{"compound": "CC(=O)Nc1ccc2[nH]c(=O)n([C@H]3CC[C@@H](C(C)(C)C)CC3)c(=O)c2c1", "note": "[Example 50, N-(3-((1s,4s)-4-(Tert-butyl)cyclohexyl)-2,4-dioxo-1,2,3,4-tetrahydroquinazolin-6-yl)acetamide]", "values": [{"measurement": "IC50", "setting": "[1]", "result": 0.005, "unit": "mg/L"}]}
{"compound": "CC(=O)Nc1ccc2[nH]c(=O)n(C3C4CC5CC(C4)CC3C5)c(=O)c2c1", "note": "(stereo not drawn) [Example 51, N-(3-((1r,3r,5r,7r)-adamantan-2-yl)-2,4-dioxo-1,2,3,4-tetrahydroquinazolin-6-yl)acetamide]", "values": [{"measurement": "IC50", "setting": "[1]", "result": 0.178, "unit": "mg/L"}]}
{"compound": "CC(=O)Nc1ccc2[nH]c(=O)n(C3CCC(C)(C)CC3)c(=O)c2c1", "note": "[Example 52, N-(3-(4,4-dimethylcyclohexyl)-2,4-dioxo-1,2,3,4-tetrahydroquinazolin-6-yl)acetamide]", "values": [{"measurement": "IC50", "setting": "[1]", "result": 0.058, "unit": "mg/L"}]}
{"compound": "CC(=O)Nc1ccc2[nH]c(=O)n([C@H]3CC[C@H](C(F)(F)F)CC3)c(=O)c2c1", "note": "[Example 53, N-(2,4-dioxo-3-((1r,4r)-4-(trifluoromethyl)cyclohexyl)-1,2,3,4-tetrahydroquinazolin-6-yl)acetamide]", "values": [{"measurement": "IC50", "setting": "[1]", "result": 0.13, "unit": "mg/L"}]}
{"compound": "CC[C@H]1CC[C@@H](n2c(=O)[nH]c3ccc(NC(C)=O)cc3c2=O)CC1", "note": "[Example 55, N-(3-((1s,4s)-4-Ethylcyclohexyl)-2,4-dioxo-1,2,3,4-tetrahydroquinazolin-6-yl)acetamide]", "values": [{"measurement": "IC50", "setting": "[1]", "result": 0.3, "unit": "mg/L"}]}
{"compound": "CC[C@H]1CC[C@H](n2c(=O)[nH]c3ccc(NC(C)=O)cc3c2=O)CC1", "note": "[Example 56, N-(3-((1r,4r)-4-Ethylcyclohexyl)-2,4-dioxo-1,2,3,4-tetrahydroquinazolin-6-yl)acetamide]", "values": [{"measurement": "IC50", "setting": "[1]", "result": 0.015, "unit": "mg/L"}]}
{"compound": "CCC[C@H]1CC[C@@H](n2c(=O)[nH]c3ccc(NC(C)=O)cc3c2=O)CC1", "note": "[Example 57, N-(2,4-Dioxo-3-((1r,4s)-4-propylcyclohexyl)-1,2,3,4-tetrahydroquinazolin-6-yl)acetamide]", "values": [{"measurement": "IC50", "setting": "[1]", "result": 0.06, "unit": "mg/L"}]}
{"compound": "CCC[C@H]1CC[C@H](n2c(=O)[nH]c3ccc(NC(C)=O)cc3c2=O)CC1", "note": "[Example 58, N-(2,4-Dioxo-3-((1s,4r)-4-propylcydohexyl)-1,2,3,4-tetrahydroquinazolin-6-yl)acetamide]", "values": [{"measurement": "IC50", "setting": "[1]", "result": 0.007, "unit": "mg/L"}]}
{"compound": "CC(=O)Nc1ccc2[nH]c(=O)n(C3CCC(C)CC3)c(=O)c2c1", "note": "(stereo not drawn) [Example 59, N-(3-(4-methylcyclohexyl)-2,4-dioxo-1,2,3,4-tetrahydroquinazolin-6-yl)acetamide]", "values": [{"measurement": "IC50", "setting": "[1]", "result": 0.329, "unit": "mg/L"}]}
{"compound": "CC(=O)Nc1ccc2[nH]c(=O)n(C3CCC(C(C)(C)C)C3)c(=O)c2c1", "note": "(stereo not drawn) [Example 60, N-(3-(3-(Tert-butyl)cyclopentyl)-2,4-dioxo-1,2,3,4-tetrahydroquinazolin-6-yl)acetamide]", "values": [{"measurement": "IC50", "setting": "[1]", "result": 0.007, "unit": "mg/L"}]}
{"compound": "CC(=O)Nc1ccc2[nH]c(=O)n([C@H]3CCO[C@@H](C(C)(C)C)C3)c(=O)c2c1", "note": "[Example 61, N-(3-((2R,4S)-2-(Tert-butyl)tetrahydro-2H-pyran-4-yl)-2,4-dioxo-1,2,3,4-tetrahydroquinazolin-6-yl)acetamide]", "values": [{"measurement": "IC50", "setting": "[1]", "result": 0.744, "unit": "mg/L"}]}
{"compound": "CC(=O)Nc1ccc2[nH]c(=O)n([C@H]3CC[C@H](C(C)(C)F)CC3)c(=O)c2c1", "note": "[Example 62, N-(3-((1r,4r)-4-(2-Fluoropropan-2-yl)cyclohexyl)-2,4-dioxo-1,2,3,4-tetrahydroquinazolin-6-yl)acetamide]", "values": [{"measurement": "IC50", "setting": "[1]", "result": 0.933, "unit": "mg/L"}]}
